Assay [1] deals with IDH1-R132C recombinant protein (Homo sapiens, UniProt O75874, R132C). In words: IDH1-R132C enzymatic assay (NADPH consumption, diaphorase/resazurin readout). The class given is biochemical. Conditions: read-out: Enzyme IDH1 R132C IC50 Range. The protocol: (§1) Assays were performed in a 384-well black plate. An aliquot of 250 nL of compound was incubated with 10 μL of 30 nM IDH1-R132H or 10 nM IDH1-R132C recombinant protein in assay buffer (50 mM Tris pH=7.5, 150 mM NaCl, 5 mM MgCl2, 0.1% (w/v) Bovine Serum Albumin, and 0.01% Triton X-100) in each well at 25° C. for 15 minutes. After the plate was centrifuged briefly, an aliquot of 10 μL of 2 mM α-ketoglutarate and 20 μM NADPH solution prepared in assay buffer was then added to each well and the reaction was maintained at 25° C. for 45 minutes. An aliquot of 10 μL of diaphorase solution (0.15 U/mL diaphorase and 30 μM Resazurin in assay buffer) was added to each well. […] The IC50 of a given compound was calculated by fitting the dose response curve of inhibition of NADPH consumption at a given concentration with the four parameter logistic equation.
For orientation: Alamar Blue is a resazurin reagent that responds to reducing activity.

Assay [2] addresses IDH1-R132H recombinant protein (Homo sapiens, UniProt O75874, R132H). The assay is described as follows: IDH1-R132H enzymatic assay (NADPH consumption, diaphorase/resazurin readout). Conditions: read-out: Enzyme IDH1 R132H IC50 Range. The class given is biochemical. The protocol:
as §1

Chain of IDH1-R132C recombinant protein (O75874 whole entry R132C): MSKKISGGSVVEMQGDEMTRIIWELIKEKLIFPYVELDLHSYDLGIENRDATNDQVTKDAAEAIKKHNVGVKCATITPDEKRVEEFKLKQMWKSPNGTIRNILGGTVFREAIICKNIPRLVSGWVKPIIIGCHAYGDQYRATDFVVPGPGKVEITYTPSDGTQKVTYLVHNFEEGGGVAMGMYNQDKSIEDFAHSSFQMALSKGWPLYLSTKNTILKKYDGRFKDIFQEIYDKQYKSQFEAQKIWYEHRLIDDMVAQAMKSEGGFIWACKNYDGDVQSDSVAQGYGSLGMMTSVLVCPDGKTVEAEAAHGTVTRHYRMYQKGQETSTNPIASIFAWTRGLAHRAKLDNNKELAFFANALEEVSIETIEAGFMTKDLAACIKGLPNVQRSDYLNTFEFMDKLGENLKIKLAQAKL
Chain of IDH1-R132H recombinant protein (O75874 whole entry R132H): as the sequence (O75874 whole entry R132C) above, with C132H counted along it

One may read the IC50 as the concentration that inhibits the measured activity by half. As for `N#Cc1ccc(NCc2cc3cc(Cl)ccc3[nH]c2=O)cc1OC(F)(F)F` [Compound I-10, 4-{[(6-chloro-2-oxo-1,2-dihydroquinolin-3-yl)methyl]amino}-2-(trifluoromethoxy)benzonitrile], the IC50 in assay [1] is above 1 µM; in assay [2], 0.1 to 1 µM.
On to `COc1cc(NCc2cc3cc(Cl)ccc3[nH]c2=O)cc(OC)c1C#N` [Compound I-9, 4-{[(6-chloro-2-oxo-1,2-dihydroquinolin-3-yl)methyl]amino}-2,6-dimethoxybenzonitrile], for which the 50% inhibitory concentration (IC50) in assay [1] is above 1 µM; in assay [2] it was 0.1 to 1 µM.
The matching figures for `COc1cc(NCc2cc3cc(Cl)c(OCCCN4CCCCC4)cc3[nH]c2=O)ccc1C#N` [Compound I-84, 4-[({6-chloro-2-oxo-7-[3-(piperidin-1-yl)propoxy]-1,2-dihydroquinolin-3-yl}methyl)amino]-2-methoxybenzonitrile]: above 1 µM and 0.1 to 1 µM.
Take `COc1cc(NCc2cc3cc(Cl)c(OCc4ccncc4)cc3[nH]c2=O)ccc1C#N` [Compound I-74, 4-({[6-chloro-2-oxo-7-(pyridin-4-ylmethoxy)-1,2-dihydroquinolin-3-yl]methyl}amino)-2-methoxybenzonitrile]: the figures for the IC50 in assay [1] and in assay [2] were above 1 µM and 0.1 to 1 µM, respectively.
Taken in the same sequence, the figures for `COc1cc(NCc2cc3cc(Cl)cc(OCCN4CCCC4)c3[nH]c2=O)ccc1C#N` [Compound I-100, 4-[({6-chloro-2-oxo-8-[2-(pyrrolidin-1-yl)ethoxy]-1,2-dihydroquinolin-3-yl}methyl)amino]-2-methoxybenzonitrile] were above 1 µM and 0.1 to 1 µM.
Taken in the same sequence, the figures for `COc1cc(NCc2cc3cc(Cl)c(OCC(=O)N(C)C)cc3[nH]c2=O)ccc1C#N` [Compound I-67, 2-[(6-chloro-3-{[(4-cyano-3-methoxyphenyl)amino]methyl}-2-oxo-1,2-dihydroquinolin-7-yl)oxy]-N,N-dimethylacetamide] were above 1 µM and 0.01 to 0.1 µM.
In the case of `COc1cc(NCc2cc3cc(Cl)c(OCC4CCS(=O)(=O)CC4)cc3[nH]c2=O)ccc1C#N` [Compound I-75, 4-[({6-chloro-7-[(1,1-dioxo-1λ^6-thian-4-yl)methoxy]-2-oxo-1,2-dihydroquinolin-3-yl}methyl)amino]-2-methoxybenzonitrile], the half-inhibitory concentration (IC50) in assay [1] was above 1 µM; in assay [2], 0.1 to 1 µM.
Consider `N#Cc1ccc(NCc2cc3cc(Cl)ccc3[nH]c2=O)cc1O` [Compound I-8, 4-{[(6-chloro-2-oxo-1,2-dihydroquinolin-3-yl)methyl]amino}-2-hydroxybenzonitrile], for which the IC50 in assay [1] was above 1 µM; in assay [2], 0.1 to 1 µM.
Taken in the same sequence, the figures for `COc1cc(NCc2cc3cc(Cl)c(OCC(N)=O)cc3[nH]c2=O)ccc1C#N` [Compound I-68, 2-[(6-chloro-3-{[(4-cyano-3-methoxyphenyl)amino]methyl}-2-oxo-1,2-dihydroquinolin-7-yl)oxy]acetamide] were 0.1 to 1 µM and 0.01 to 0.1 µM.
For `COc1cc(NCc2cc3cc(Cl)c(OC[C@@H]4CCCN4C)cc3[nH]c2=O)ccc1C#N` [Compound I-94, 4-{[(6-chloro-7-{[(2S)-1-methylpyrrolidin-2-yl]methoxy}-2-oxo-1,2-dihydroquinolin-3-yl)methyl]amino}-2-methoxybenzonitrile], the IC50 in assay [1] was above 1 µM; in assay [2], 0.01 to 0.1 µM.
The matching figures for `COc1cc(NCc2cc3cc(Cl)cc(OCc4ccccn4)c3[nH]c2=O)ccc1C#N` [Compound I-98, 4-({[6-chloro-2-oxo-8-(pyridin-2-ylmethoxy)-1,2-dihydroquinolin-3-yl]methyl}amino)-2-methoxybenzonitrile]: above 1 µM and 0.01 to 0.1 µM.
Consider `COc1cc(NCc2cc3cc(F)ccc3[nH]c2=O)ccc1C#N` [Compound I-27, 4-{[(6-fluoro-2-oxo-1,2-dihydroquinolin-3-yl)methyl]amino}-2-methoxybenzonitrile], for which the IC50 in assay [1] and in assay [2] was above 1 µM in each case.
For the molecule `Cc1cc(NCc2cc3cc(Cl)ccc3[nH]c2=O)ccc1C#N` [Compound I-36, 4-{[(6-chloro-2-oxo-1,2-dihydroquinolin-3-yl)methyl]amino}-2-methylbenzonitrile], the IC50 in assay [1] was above 1 µM; in assay [2], 0.1 to 1 µM.
Taken in the same sequence, the figures for `COc1cc(NCc2cc3ccc(C)cc3[nH]c2=O)ccc1-n1cnnn1` [Compound I-22, 3-({[3-methoxy-4-(1H-1,2,3,4-tetrazol-1-yl)phenyl]amino}methyl)-7-methyl-1,2-dihydroquinolin-2-one] were above 1 µM and 0.1 to 1 µM.
On to `COc1cc(NCc2cc3cc(C(C)(C)C)ccc3[nH]c2=O)ccc1C#N` [Compound I-24, 4-{[(6-tert-butyl-2-oxo-1,2-dihydroquinolin-3-yl)methyl]amino}-2-methoxybenzonitrile], for which the values for the concentration for half-maximal inhibition (IC50) in assay [1] and in assay [2] were above 1 µM and 0.01 to 0.1 µM, respectively.
Taken in the same sequence, the figures for `COc1cc(NCc2cc3cc(Cl)c(OCCN4CCS(=O)(=O)CC4)cc3[nH]c2=O)ccc1C#N` [Compound I-91, 4-[({6-chloro-7-[2-(1,1-dioxo-1λ^6,4-thiomorpholin-4-yl)ethoxy]-2-oxo-1,2-dihydroquinolin-3-yl}methyl)amino]-2-methoxybenzonitrile] were above 1 µM and 0.1 to 1 µM.
The matching figures for `Cc1nnnn1-c1ccc(NCc2cc3cc(Cl)ccc3[nH]c2=O)cc1` [Compound I-38, 6-chloro-3-({[4-(5-methyl-1H-1,2,3,4-tetrazol-1-yl)phenyl]amino}methyl)-1,2-dihydroquinolin-2-one]: above 1 µM and 0.1 to 1 µM.
Take `COc1cc(NCc2cc3cc(C(F)(F)F)ccc3[nH]c2=O)ccc1C#N` [Compound I-25, 2-methoxy-4-({[2-oxo-6-(trifluoromethyl)-1,2-dihydroquinolin-3-yl]methyl}amino)benzonitrile]: the concentration for half-maximal inhibition (IC50) in assay [1] is above 1 µM; in assay [2], 0.01 to 0.1 µM.
On to `COc1cc(NCc2cc3cc(Cl)cc(OCCN4CCOCC4)c3[nH]c2=O)ccc1C#N` [Compound I-99, 4-[({6-chloro-8-[2-(morpholin-4-yl)ethoxy]-2-oxo-1,2-dihydroquinolin-3-yl}methyl)amino]-2-methoxybenzonitrile], for which the IC50 in assay [1] is above 1 µM; in assay [2], 0.1 to 1 µM.
Regarding `COc1cc(NCc2cc3ccc(O)cc3[nH]c2=O)ccc1C#N` [Compound I-30, 4-{[(7-hydroxy-2-oxo-1,2-dihydroquinolin-3-yl)methyl]amino}-2-methoxybenzonitrile], the IC50 in assay [1] was above 1 µM; in assay [2] it was 0.1 to 1 µM.
Take `COc1cc(NCc2cc3ccccc3[nH]c2=O)ccc1C#N` [Compound I-47, 2-methoxy-4-{[(2-oxo-1,2-dihydroquinolin-3-yl)methyl]amino}benzonitrile]: the results for the IC50 in assay [1] and in assay [2] were above 1 µM and 0.1 to 1 µM, respectively.
The matching figures for `COc1cc(NCc2cc3cc(Cl)c(OCc4cc(C)n(C)n4)cc3[nH]c2=O)ccc1C#N` [Compound I-70, 4-[({6-chloro-7-[(1,5-dimethyl-1H-pyrazol-3-yl)methoxy]-2-oxo-1,2-dihydroquinolin-3-yl}methyl)amino]-2-methoxybenzonitrile]: 0.1 to 1 µM and 0.01 to 0.1 µM.
For `COc1cc(NCc2cc3cc(Cl)c(OCCn4nc(C)cc4C)cc3[nH]c2=O)ccc1C#N` [Compound I-92, 4-[({6-chloro-7-[2-(3,5-dimethyl-1H-pyrazol-1-yl)ethoxy]-2-oxo-1,2-dihydroquinolin-3-yl}methyl)amino]-2-methoxybenzonitrile], the values for the concentration for half-maximal inhibition (IC50) in assay [1] and in assay [2] were above 1 µM and 0.1 to 1 µM, respectively.
Take `COc1cc(NCc2cc3cc(Cl)cc(OC)c3[nH]c2=O)ccc1C#N` [Compound I-97, 4-{[(6-chloro-8-methoxy-2-oxo-1,2-dihydroquinolin-3-yl)methyl]amino}-2-methoxybenzonitrile]: the half-maximal inhibitory concentration (IC50) in assay [1] is above 1 µM; in assay [2], 0.1 to 1 µM.
Taken in the same sequence, the figures for `COc1cc2[nH]c(=O)c(CNc3ccc(C#N)c(OC)c3)cc2cc1F` [Compound I-26, 4-{[(6-fluoro-7-methoxy-2-oxo-1,2-dihydroquinolin-3-yl)methyl]amino}-2-methoxybenzonitrile] were above 1 µM and 0.01 to 0.1 µM.
Take `COc1cc(NCc2cc3cc(Cl)c(OCc4nc(C(N)=O)no4)cc3[nH]c2=O)ccc1C#N` [Compound I-79, 5-{[(6-chloro-3-{[(4-cyano-3-methoxyphenyl)amino]methyl}-2-oxo-1,2-dihydroquinolin-7-yl)oxy]methyl}-1,2,4-oxadiazole-3-carboxamide]: the IC50 in assay [1] was 0.1 to 1 µM; in assay [2], 0.01 to 0.1 µM.
Taken in the same sequence, the figures for `COc1cc(NCc2cc3cc(Cl)c(OCCN4CCCC4)cc3[nH]c2=O)ccc1C#N` [Compound I-85, 4-[({6-chloro-2-oxo-7-[2-(pyrrolidin-1-yl)ethoxy]-1,2-dihydroquinolin-3-yl}methyl)amino]-2-methoxybenzonitrile] were above 1 µM and 0.1 to 1 µM.
Taken in the same sequence, the figures for `COc1cc(NCc2cc3cc(Cl)c(OC4CCN(C)CC4)cc3[nH]c2=O)ccc1C#N` [Compound I-66, 4-[({6-chloro-7-[(1-methylpiperidin-4-yl)oxy]-2-oxo-1,2-dihydroquinolin-3-yl}methyl)amino]-2-methoxybenzonitrile] were above 1 µM and 0.01 to 0.1 µM.
